The source of these data is patent publication US5198458A, “Pyrrolidineamide derivatives of acylamino acid and pharmaceutical composition containing the same” (Suntory Limited, priority 1986, dated 1993).

Molecules are shown by their SMILES.

Data set [1] in a line: Acute toxicity test in mice. The following applies: mouse, in vivo, ip; intraperitoneal, in DMSO, five mice per group. The protocol: Acute toxicity test in mice
Test samples were prepared by dissolving the respective compounds in DMSO, and a portion (0.1 ml) of the so conditioned test sample was administered intraperitoneally to each of the mice used. Each of the treated groups consisted of five mice.

For data set [2], the target named is prolyl endopeptidase (Elizabethkingia meningoseptica, UniProt P27028). The data set is classed as biochemical. The following applies: amount per test tube for 50% inhibition; pH 7.0, 35° C., 10 minutes. The protocol: Measurement of anti-prolyl endopeptidase activity
Chain of prolyl endopeptidase (P27028 21-705): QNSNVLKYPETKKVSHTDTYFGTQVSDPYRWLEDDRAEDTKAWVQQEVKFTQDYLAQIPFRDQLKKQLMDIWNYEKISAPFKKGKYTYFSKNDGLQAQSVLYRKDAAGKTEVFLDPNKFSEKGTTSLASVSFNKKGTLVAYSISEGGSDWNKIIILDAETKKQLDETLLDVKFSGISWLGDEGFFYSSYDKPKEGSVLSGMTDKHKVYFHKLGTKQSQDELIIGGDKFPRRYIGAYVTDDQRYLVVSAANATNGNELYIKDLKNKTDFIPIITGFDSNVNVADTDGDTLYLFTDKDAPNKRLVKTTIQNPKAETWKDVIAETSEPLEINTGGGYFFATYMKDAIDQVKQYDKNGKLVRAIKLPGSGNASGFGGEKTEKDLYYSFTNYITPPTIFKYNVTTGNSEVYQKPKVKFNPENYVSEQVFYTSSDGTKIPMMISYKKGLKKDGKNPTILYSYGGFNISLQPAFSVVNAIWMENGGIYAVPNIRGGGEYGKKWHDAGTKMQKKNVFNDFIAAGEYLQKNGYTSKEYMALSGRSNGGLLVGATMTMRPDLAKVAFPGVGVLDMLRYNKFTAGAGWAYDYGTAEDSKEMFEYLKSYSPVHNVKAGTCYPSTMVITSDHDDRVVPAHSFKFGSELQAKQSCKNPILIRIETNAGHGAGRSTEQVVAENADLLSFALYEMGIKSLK
The method of Yoshimoto and Tsuru [T. Yoshimoto and D. Tsuru, Agric. […] A mixture of 0.0025M Z-glycyl-proline-β-naphthylamide (0.25 ml), 0.1M phosphate buffer (pH, 7.0; 0.99 ml) and a solution of a particular anti-propyl endopeptidase compound (0.01 ml) was incubated in a test tube at 37° C. for 3 minutes. Thereafter, 0.1 ml of a solution of prolyl endopeptidase (0.2 U/ml) was added and the mixture was incubated at 35° C. for 10 minutes. After the reaction, 2.0 ml of Triton X-100 in 1M acetate buffer (pH, 4.0) was added to the reaction mixture so that the final concentration of the surfactant was 10%. The mixture was left at room temperature for 15 minutes and the absorbance (a) at 410 nm was measured.
A sample of a blind test was prepared by using the buffer instead of the anti-prolyl endopeptidase compound and its absorbance (b) was also measured. The percent inhibition of prolyl endopeptidase was calculated by the formula: […]

Data set [3] has as its system experimental amnesia caused in rats by scopolamine. In words: Preventive effect against experimental amnesia caused in rats by scopolamine (passive avoidance learning, intraperitoneal administration). It is filed as in vivo, Wister male rats. Particulars: for No. of avoidances during learning / Initial avoidance time: before scopolamine (3 mg/kg i.p.); for Initial avoidance time: learning; for Avoidance time After 24 hrs / No. of amnesic rats/No. of rats tested / Percentage amnesia: scopolamine 3 mg/kg i.p. after learning, 24 hrs. The protocol:
Measurement of preventive effect against experimental amnesia caused in rats by scopolamine (Intraperitoneal administration)
Several of the anti-prolyl endopeptidase compounds according to the present invention were checked for their ability to prevent the inhibition of long-term memory fixation by scopolamine. […] One hour after the administration, electric shocks were applied to the rats so that they would acquire passive avoidance learning. Immediately thereafter, scopolamine was administered intraperitoneally to each rat in an amount of 3 mg per kg of body weight.
The results of the test were assessed 24 hours after the administration of scopolamine. The number of amnesic rats and of sound rats was counted for each of the control group (rats to which the test compounds were not administered but to which only scopolamine and physiological saline were administered intraperitoneally) and the treated group (rats to which both the test compound and scopolamine were administered).

In the case of `O=C([C@@H]1CCCN1C(=O)CCCOc1ccccc1)N1CCCC1` [compound 21], the median lethal dose (LD50) (as a rule, the dose at which mortality reaches 50%) in data set [1] was 350 mg/kg. The IC50 in data set [2] is on record as 0.001 μg/test tube.

For the molecule `O=C(c1ccccc1)c1ccc(OCCCC(=O)N2CCC[C@H]2C(=O)N2CCCC2)cc1` [compound 31], in data set [2], the IC50 was 0.004 μg/test tube.

In turn, `O=C(/C=C/c1ccccc1OCCCC(=O)N1CCC[C@H]1C(=O)N1CCCC1)c1ccccc1` [compound 41] gave an IC50 in data set [2] of 0.001 μg/test tube.

`O=C([C@@H]1CCCN1C(=O)CCCOc1ccccc1CCc1ccccc1)N1CCCC1` [compound 37] showed an LD50 in data set [1] of 350 mg/kg. In data set [2], this molecule yielded an IC50 of 0.002 μg/test tube.

Take `CCCCCCCC/C=C\CCCCCCCC(=O)N1CCC[C@H]1C(=O)N1CCCC1` [Compound No. 43, N-(N-oleoyl-L-prolyl)pyrrolidine]: in data set [3] (1 mg/kg i.p.), the “No. of avoidances during learning” value was 3.4, the Initial avoidance time is 1.9 s, the “Avoidance time After 24 hrs” value was 240.8 s and the “No. of amnesic rats/No. of rats tested” value is on record as 2/10. In data set [3] (1 mg/kg i.p.), this molecule had a Percentage amnesia of 20. This molecule returned an IC50 in data set [2] of 0.02 μg/test tube.

`O=C([C@@H]1CCCN1C(=O)CCCOc1ccccc1Cc1ccccc1)N1CCCC1` [compound 34] came in with an IC50 in data set [2] of 0.001 μg/test tube.

As for `CCCCCCCC/C=C\CCCCCCCC(=O)N[C@@H](CCCC)C(=O)N1CCCC1` [compound 16], in data set [3] (20 mg/kg i.p.), the “No. of avoidances during learning” value was determined as 2.1, the Initial avoidance time is 2.2 s, the “Avoidance time After 24 hrs” value is 252.0 s and the “No. of amnesic rats/No. of rats tested” value was 2/10. This molecule displayed a Percentage amnesia in data set [3] (20 mg/kg i.p.) of 20. In data set [2], this molecule had an IC50 of 0.07 μg/test tube.

In turn, `O=C([C@@H]1CCCN1C(=O)COc1ccc(Cl)cc1)N1CCCC1` [compound 20] had an IC50 in data set [2] of 0.20 μg/test tube.

In data set [2], `CC(C)[C@H](NC(=O)CCCOc1ccc(Cc2ccccc2)cc1)C(=O)N1CCCC1` [compound 13] registered an IC50 of 0.04 μg/test tube.

As for `CCC(=O)c1ccccc1OCCCC(=O)N1CCC[C@H]1C(=O)N1CCCC1` [compound 24], the IC50 in data set [2] was 0.004 μg/test tube.

In the case of `O=C([C@@H]1CCCN1C(=O)CCCc1ccccc1)N1CCCC1` [Compound No. 18, N-[N-(γ-phenyl)butyryl-L-prolyl]pyrrolidine], in data set [3] (5 mg/kg i.p.), the “No. of avoidances during learning” value worked out at 1.8, the Initial avoidance time came out at 2.8 s, the “Avoidance time After 24 hrs” value came out at 300.0 s and the “No. of amnesic rats/No. of rats tested” value is 0/10. The molecule also displayed a Percentage amnesia in data set [3] (5 mg/kg i.p.) of 0.

As to `O=C([C@@H]1CCCN1C(=O)CCCCOc1ccccc1/C=C/c1ccccc1)N1CCCC1` [compound 40], the IC50 in data set [2] was 0.002 μg/test tube.

Turning to `O=C([C@@H]1CCCN1C(=O)CCCOc1ccccc1OCc1ccccc1)N1CCCC1` [compound 30], the IC50 in data set [2] was 0.005 μg/test tube.

Consider `CC(C)[C@H](NC(=O)CCCc1ccccc1)C(=O)N1CCCC1` [Compound No. 1, N-[N-(γ-phenyl)butyryl-L-valyl]pyrrolidine], for which, in data set [3] (25 mg/kg i.p.), the “No. of avoidances during learning” value is 1.8, the Initial avoidance time worked out at 2.4 s, the “Avoidance time After 24 hrs” value came to 243.0 s and the “No. of amnesic rats/No. of rats tested” value is 3/10. The Percentage amnesia in data set [3] (25 mg/kg i.p.) is reported as 30.

Regarding `CC(C)C[C@H](NC(=O)CCCOc1ccc(Cc2ccccc2)cc1)C(=O)N1CCCC1` [compound 12], in data set [2], the IC50 came to 0.08 μg/test tube.

Molecule `O=C([C@@H]1CCCN1C(=O)CCCOc1ccccc1/C=C/c1ccccc1)N1CCCC1` [Compound No. 35, N-{N-[γ(o-(E)-stilbenyloxy)butyryl]-L-prolyl)pyrrolidine] yielded an IC50 in data set [2] of 0.001 μg/test tube.

In data set [1], `CC(C)C[C@H](NC(=O)CCCc1ccccc1)C(=O)N1CCCC1` [Compound No. 2] came in with a median lethal dose (LD50) greater than 600 mg/kg. Also, in data set [3] (25 mg/kg i.p.), the “No. of avoidances during learning” value came out at 2.2, the Initial avoidance time was 2.7 s, the “Avoidance time After 24 hrs” value was 264.6 s and the “No. of amnesic rats/No. of rats tested” value was 2/10. In data set [3] (25 mg/kg i.p.), this molecule showed a Percentage amnesia of 20. Moreover, in data set [2], the IC50 is given as 0.15 μg/test tube.

`CCCCC/C=C\C/C=C\CCCCCCCC(=O)N1CCC[C@H]1C(=O)N1CCCC1` [compound 46] displayed an IC50 in data set [2] of 0.015 μg/test tube.

`O=C([C@@H]1CCCN1C(=O)CCCOc1ccccc1O)N1CCCC1` [compound 22] had an IC50 in data set [2] of 0.008 μg/test tube.

Turning to `O=C([C@@H]1CCCN1C(=O)CCCOc1ccc(/C=C/c2ccccc2)cc1)N1CCCC1` [compound 36], the IC50 in data set [2] is reported as 0.003 μg/test tube.

In data set [2], `O=C([C@@H]1CCCN1C(=O)CCCOc1cccc(Cc2ccccc2)c1)N1CCCC1` [compound 33] came in with an IC50 of 0.0004 μg/test tube.

As to `C=CCOc1ccccc1CCCC(=O)N1CCC[C@H]1C(=O)N1CCCC1` [compound 27], the 50% lethal dose (LD50) in data set [1] is 390 mg/kg. The same molecule showed an IC50 in data set [2] of 0.01 μg/test tube.

`CCCC[C@H](NC(=O)CCCc1ccccc1)C(=O)N1CCCC1` [compound 5] yielded an IC50 in data set [2] of 0.15 μg/test tube.

`O=C([C@@H]1CCCN1C(=O)CCOc1ccccc1/C=C/c1ccccc1)N1CCCC1` [compound 39] yielded an IC50 in data set [2] of 0.003 μg/test tube.

Consider `CC(C)C[C@H](NC(=O)CCCOc1ccccc1/C=C/c1ccccc1)C(=O)N1CCCC1` [compound 9], for which the IC50 in data set [2] worked out at 0.03 μg/test tube.

Consider `O=C(/C=C/c1ccccc1)c1ccccc1OCCCC(=O)N1CCC[C@H]1C(=O)N1CCCC1` [compound 42], for which the median lethal dose (LD50) in data set [1] worked out at 360 mg/kg. The same molecule came in with an IC50 in data set [2] of 0.0008 μg/test tube.

`CCCCCCCCCc1ccc(OCCCC(=O)N2CCC[C@H]2C(=O)N2CCCC2)cc1` [compound 25] displayed an IC50 in data set [2] of 0.008 μg/test tube.

As for `CC(C)[C@H](NC(=O)CCCOc1ccccc1/C=C/c1ccccc1)C(=O)N1CCCC1` [compound 10], the IC50 in data set [2] was 0.02 μg/test tube.

In turn, `O=C(c1ccccc1)c1ccccc1OCCCC(=O)N1CCC[C@H]1C(=O)N1CCCC1` [compound 32] showed an IC50 in data set [2] of 0.001 μg/test tube.

As for `CCC(=O)c1ccc(OCCCC(=O)N2CCC[C@H]2C(=O)N2CCCC2)cc1` [compound 23], in data set [2], the IC50 is given as 0.003 μg/test tube.

`O=C([C@@H]1CCCN1C(=O)CCCCOc1ccc(Oc2ccccc2)cc1)N1CCCC1` [compound 29]: in data set [2], the IC50 came to 0.009 μg/test tube.

Take `C=CCc1ccccc1OCCCC(=O)N1CCC[C@H]1C(=O)N1CCCC1` [compound 26]: in data set [1], the LD50 is 390 mg/kg. Moreover, the IC50 in data set [2] is reported as 0.002 μg/test tube.
